Laboratory results as given in PubChem BioAssay AID1645848.
Values after ≈ are worked out from the molar mass of the structure shown.

Details: buffer; pH 7.4; 6.0 h; 150.0 µM

| SMILES | solubility kinetic [µg/mL] |
| --- | --- |
| N#Cc1nc(-c2cccc3ccccc23)oc1NC1CNC1 | 9.62 (≈ 33.1 µM) |
| COc1ccc(Nc2nc(-c3cccc(OC)c3)no2)cc1 | < 1 |
| CC(C)Oc1cccc(-c2csc(N3CCC(C(N)=O)CC3)n2)c1 | 41.7 (≈ 121 µM) |
| O=S(=O)(c1ccccc1)c1nc(-c2ccc(F)cc2)oc1N1CCCCCC1 | < 1 |
| COc1ccc(Nc2nnc(-c3ccc(C)c(S(=O)(=O)NCc4nc5ccccc5[nH]4)c3)c3ccccc23)cc1 | < 1 |
| CC(C)(O)CCc1ccc(OCc2cc(-c3cccc(OC(F)F)c3)c3ncccc3c2)cc1 | < 1 |
| CC[C@H]1CN(C)[C@H]2Cc3c([nH]c4ccccc34)C(=O)C[C@H]1[C@H]2C(=O)OC | > 52 |
| Cc1nn2c(c1-c1ccccc1-c1ccccc1)N(Cc1ccc(O)cc1)CCC2 | < 1 |
| NC(=O)C1CCN(c2nc(-c3ccc(OC(F)(F)F)cc3)cs2)CC1 | < 1 |
| Cc1cnccc1-c1nc(Nc2ccc(F)c(F)c2)c2ccccc2n1 | 1.43 (≈ 4.09 µM) |
| CCOP(=O)(Cc1ccc(C(=O)Nc2ccc(Br)cc2C#N)cc1)OCC | 14.9 (≈ 33.1 µM) |
| O=C(Nc1ccc(Oc2ccnc3[nH]ccc23)c(F)c1)c1cccn(-c2ccc(F)cc2)c1=O | < 1 |
| COc1ncc(-c2ccc3c(Nc4cc(Oc5cc(F)cc(F)c5)cc(C(=O)O)c4)c(S(=O)(=O)NC4CC4)cnc3c2)c(OC)n1 | 21.5 (≈ 33.1 µM) |
| NC(=O)C1CCN(c2ncc(-c3cccc(N4CCOCC4)c3)s2)CC1 | > 55 |
| Cc1ccccc1C(=O)N1CCc2cc(-c3ccnc(NC(=O)Cc4ccccc4)n3)ccc21 | 6.19 (≈ 13.8 µM) |
| NS(=O)(=O)c1ccc(NC(=O)c2cc3ncccn3n2)cc1 | 5.17 (≈ 16.3 µM) |
| c1cc(OCCN2CCCCC2)cc(-c2n[nH]c3ccc(-c4ncn[nH]4)cc23)c1 | > 38 |
| O=C(Nc1nc(-c2ccccc2)cs1)c1ccncc1NS(=O)(=O)c1ccc2ccccc2c1 | < 1 |
| CCOc1ccc(CCNC(=O)c2cc3ccccc3n2CCN2CCOCC2)cc1OCC | 47.5 (≈ 102 µM) |
| O=C1CCc2cc(S(=O)(=O)Nc3ccc(F)c(Cl)c3)c(F)cc2N1 | 13.4 (≈ 35.9 µM) |
| Cc1ccc2oc(NC3=NC(c4ccccc4Cl)C4=C(CCCC4=O)N3)nc2c1 (centres undefined) | < 1 |
| Fc1ccc(Nc2ccnc(-c3ccncc3)n2)cc1F | 1.22 (≈ 4.27 µM) |
| O=C1CCCC2=C1C(c1[nH]ncc1Cl)N=C(Nc1nc3ccc(Cl)cc3o1)N2 (centres undefined) | 1 (≈ 2.4 µM) |
| COc1cncc(Nc2ncc(-c3cccc(N(C)C)c3)c3c2OCC3)c1 | < 1 |
| O=[S+]([O-])(Nc1cnc2ccccc2c1)c1ccc(NCc2ccc(Cl)cc2O)cc1 | < 1 |

| SMILES | solubility kinetic [µg/mL] |
| --- | --- |
| Fc1ccc(F)c(Nc2nc(-c3ccncc3)nc3ccccc23)c1 | < 1 |
| Cc1cc(C)cc(C(=O)Nc2ccc3c(N4CCCC4)ncnc3c2)c1 | < 1 |
| CCCCN1CCC[C@H]1CNC(=O)c1cc(C#N)c2ccccc2c1OC | 22.2 (≈ 60.6 µM) |
| Cc1cccc(C)c1Nc1c(-c2cccs2)nc2ncccn12 | 3.44 (≈ 10.8 µM) |
| OCc1ccc(-c2ccc(-c3ccc(CO)s3)o2)s1 | > 43 |
| O=[N+]([O-])c1ccc(CNc2ccc([S+](=O)([O-])Nc3nccs3)cc2)c(O)c1 | > 60 |
| COc1ccc(CN(C2CCCCC2C)S(=O)(=O)c2ccc(S(=O)(=O)N(C)C)cc2)cc1OC (centres undefined) | < 1 |
| Cc1ccc(S(=O)(=O)Nc2cnccc2C(=O)Nc2nc(-c3ccccc3Cl)cs2)cc1 | 0.005 (≈ 0.0103 µM) |
| Cc1ccc(-c2cc(C(=O)Nc3ccc(S(=O)(=O)N(C)C)cc3)c3ccccc3n2)cc1C | < 1 |
| COc1ccc(CN2CCc3nc(N4CCN(c5ccc(F)cc5)CC4)ncc3C2)c(OC)c1OC | < 1 |
| Nc1nc2c(s1)C(c1ccc(Br)cc1)CC(=O)N2 (centres undefined) | 6.66 (≈ 20.6 µM) |
| Cc1nn2c(c1-c1ccccc1-c1ccccc1)N(CC1CC1)CCC2 | 1.56 (≈ 4.53 µM) |
| COc1cccc(-c2nc3cc(NC(=O)c4ccc(C)c([N+](=O)[O-])c4)ccc3o2)c1 | < 1 |
| O=C(Nc1ccc2oc(-c3cccnc3)nc2c1)c1ccc(-c2ccccc2)o1 | < 1 |
| CCCCNc1oc(-c2cccc3ccccc23)nc1C#N | < 1 |
| O=C(NC1CCCN(c2cc(-c3ccc(F)cc3)[nH]n2)C1)c1ccc2ncccc2c1 (centres undefined) | 12.5 (≈ 30.2 µM) |
| Cc1cnc(-c2ccccc2C2COC2)nc1NCC1CCN(c2cccnc2)CC1 | > 61 |
| Cc1cc(NS(=O)(=O)c2ccc(NC(=O)Cc3ccc(F)c(Cl)c3)cc2)no1 | > 63 |
| COc1ccccc1C(=O)Nc1ccccc1C(=O)Nc1cccc(C(F)(F)F)c1 | < 1 |
| COc1cccc(CNc2ccc(S(=O)(=O)Nc3ccc(C)nc3)cc2)c1O | 16.5 (≈ 41.2 µM) |
| CC1Cc2cc(S(=O)(=O)NCc3ccc(N(C)C)cc3)ccc2N1C(=O)C1CCC1 (centres undefined) | 3.08 (≈ 7.2 µM) |
| Cc1nnc(N2C(=O)c3oc4ccccc4c(=O)c3C2c2ccc(F)cc2)s1 (centres undefined) | < 1 |
| Cl.c1ccc(Nc2nc(NCc3ccco3)c3ccccc3n2)cc1 | < 1 |
| O=C(COc1ccccc1)NCC(c1cccs1)S(=O)(=O)c1ccc(Cl)cc1 (centres undefined) | 3.83 (≈ 8.79 µM) |
| Clc1cccc(Nc2nc(-c3ccncc3)nc3ccccc23)c1 | < 1 |

| SMILES | solubility kinetic [µg/mL] |
| --- | --- |
| Cc1nn(CCc2nc(-c3ccc4ccccc4c3)cs2)c2[nH]c(=O)cc(C(F)(F)F)c12 | < 1 |
| Cc1ccc(-c2csc(Nc3ccc(S(=O)(=O)Nc4nccs4)cc3)n2)cc1C | < 1 |
| COc1ccc(-c2c(-c3cc(C(=O)O)ccn3)ncn2C)cc1 | > 46 |
| COc1ccc(C2c3c(oc4ccc(C)cc4c3=O)C(=O)N2CCCN2CCOCC2)cc1OC (centres undefined) | > 71 |
| Cc1noc(C)c1C(=O)N1CCC2(CCCN(Cc3ccccc3)C2)CC1 | < 1 |
| CC(=O)c1c(C)c(C(=O)Nc2cccc([S+](=O)([O-])N(C)C)c2)n(C)c1C | 33.2 (≈ 88 µM) |
| O=c1c2ccccc2nc(/C=C/c2cccnc2)n1Cc1ccccc1 | 1.8 (≈ 5.29 µM) |
| O=C(Cc1ccc(Cl)c(Cl)c1)Nc1ccc(S(=O)(=O)Nc2ccon2)cc1 | > 100 |
| N#Cc1cc(-c2nc(Nc3ccc(F)c(F)c3)c3ccccc3n2)ccn1 | < 1 |
| O=C(NCCCN1CCCC1=O)c1ccc(-c2ncc3cnc(-c4ccccc4)cn23)cc1 | 21.9 (≈ 49.9 µM) |
| COc1ccc(O)c(CNc2ccc(S(=O)(=O)Nc3nccs3)cc2)c1 | > 58 |
| Fc1ccc(-c2csc3ncnc(Sc4nnnn4-c4ccccc4)c23)cc1 | 0.705 (≈ 1.73 µM) |
| Fc1cc(Nc2nc(-c3ccncc3)nc3ccccc23)ccc1-c1cccc(OC(F)F)c1 | < 1 |
| CCN(c1ccccc1)S(=O)(=O)c1c(C)nc2scc(C)n2c1=O | > 54 |
| CC1CN(c2ccc(Nc3nc(-c4ccncc4)nc4ccccc34)cc2F)CC(C)O1 (centres undefined) | < 1 |
| O=S(=O)(Nc1nccs1)c1ccc(Nc2nc(-c3ccc(F)cc3)cs2)cc1 | 2.36 (≈ 5.46 µM) |
| NC(=O)C1CCN(c2nc(-c3ccc(OCc4ccccc4)cc3)cs2)CC1 | < 1 |
| Cc1cccc(-n2cnc3cc(C(=O)N4CCC(Br)CC4)ccc32)c1 | 35.2 (≈ 88.3 µM) |
| CCc1ccc(S(=O)(=O)Nc2cnccc2C(=O)Nc2nc(-c3ccccc3)cs2)cc1 | < 1 |
| CCCCC1CCC(C(=O)Nc2ccc(S(=O)(=O)Nc3nccs3)cc2)CC1 (centres undefined) | < 1 |
| COc1ccc2oc(NC3=NC(c4[nH]ncc4Cl)C4=C(CCCC4=O)N3)nc2c1 (centres undefined) | 11.2 (≈ 27.2 µM) |
| CCOc1ccc(-c2cn3c(n2)sc2cc(C(=O)NCCCN(CC)CC)ccc23)cc1 | > 67 |
| Cc1ccc(S(=O)(=O)Nc2cnccc2C(=O)Nc2nc(-c3cccc(F)c3)cs2)cc1 | 0.167 (≈ 0.356 µM) |
| O=C(Nc1cccc(C(F)(F)F)c1)C1=CCN(Cc2ccc(F)cc2)CC1 | 26.2 (≈ 69.2 µM) |
| Cc1cn(CCN2CCN(c3ccccc3-c3cc(C#N)cc(C(=O)NCCCN4CCCC4)c3)CC2)c2ccccc12 | 14.6 (≈ 25.4 µM) |

| SMILES | solubility kinetic [µg/mL] |
| --- | --- |
| Nc1c(S(=O)(=O)c2cccs2)c2nc3ccccc3nc2n1Cc1ccccc1 | < 1 |
| CN(C)c1ccc(CN2CCNc3cc(Nc4ccccc4)ncc3C2)cc1 | > 83 |
| Cc1ccc(S(=O)(=O)c2cnc(SC(C)C(=O)Nc3ccccc3)[nH]c2=O)cc1 (centres undefined) | > 63 |
| Oc1ccc(CN2CC(CNc3ccccc3)C3(C2)CN(c2ccccc2)C3)cc1 (centres undefined) | 1.79 (≈ 4.47 µM) |
| COc1ccc(N2Cc3cccc(C(=O)Nc4ccc(C(C)C)cc4)c3C2=O)cc1 | < 1 |
| O=C(NCCO)c1cccc(-c2cc(Nc3ccc(OC(F)(F)F)cc3)ncn2)c1 | 8.93 (≈ 21.3 µM) |
| CNC(=O)Cn1cc(-c2ccc3c(c2)C(F)CC32NC(=O)N(CC(=O)N(Cc3ccc(F)cc3)[C@@H](C)C(F)(F)F)C2=O)cn1 (some centres undefined) | 22 (≈ 35.5 µM) |
| Cc1ccc(NS(=O)(=O)c2cccc(C(=O)Nc3nc(-c4ccccc4)cs3)c2)cc1 | < 1 |
| Cc1ccc(OCCn2c(CCNC(=O)c3ccccc3Br)nc3ccccc32)cc1 | < 1 |
| Cc1ccnc(NC(=S)N2CCCC(Nc3cccc(C(F)(F)F)c3)C2)c1 (centres undefined) | 11.6 (≈ 29.5 µM) |
| CCN1C(=O)c2ccccc2[S@](=O)c2ccc(C(=O)N[C@H](C)c3ccc(Br)cc3)cc21 | < 1 |
| Fc1cc(Nc2nc(-c3ccncc3)nc3ccccc23)ccc1OC(F)(F)F | < 1 |
| CCCNC(=O)Nc1ccc(Oc2ncnc3cc(OC)c(OC)cc23)cc1Cl | 1.55 (≈ 3.73 µM) |
| Nc1nc2c(s1)C(c1ccccc1OCc1ccccc1Cl)CC(=O)N2 (centres undefined) | 2.06 (≈ 5.34 µM) |
| CCCc1ccc(-c2csc(NC(=O)c3ccncc3NS(=O)(=O)c3ccc(C)cc3)n2)cc1 | < 1 |
| Clc1ccc(-c2nc(-c3ccc(Br)o3)no2)c(Cl)c1 | < 1 |
| O=S(=O)(Nc1ccc(S(=O)(=O)Nc2nccs2)cc1)c1ccc2ccccc2c1 | 33.2 (≈ 74.6 µM) |
| O=c1[nH]c(N2CCOCC2)nc2c1CCN(Cc1cc(Cl)ccc1F)CC2 | 28.6 (≈ 72.7 µM) |
| O=C(NC1CCN(c2cc(-c3ccc(Cl)cc3)[nH]n2)C1)c1ccccc1 (centres undefined) | < 1 |
| CCN(CC)S(=O)(=O)c1ccc(N2CCOCC2)c(NC(=O)c2[nH]c(C)c(C(C)=O)c2C)c1 | 3.85 (≈ 8.08 µM) |
| COc1ccc(-c2cc(-c3cccc4[nH]ncc34)cn3cncc23)cn1 | 5.52 (≈ 16.2 µM) |
| Fc1ccc(Nc2nc(-c3ccncc3Cl)nc3ccccc23)cc1F | < 1 |
| C[S+](=O)([O-])c1ccc(-c2nc(C(=O)NCc3cccnc3)n3ccccc23)cc1 | 11.4 (≈ 27.9 µM) |
| NC(=O)C1CCN(c2ncc(-c3cccc(N4CCCC4)c3)s2)CC1 | 11.6 (≈ 32.6 µM) |
